In patent publication US7053057B2, “Caspase inhibitors and uses thereof” (Vertex Pharmaceuticals Incorporated, priority 2000, dated 2006):
Square brackets hold non-standard residues; d marks the D form. Peptide text beside a SMILES is read from it. * marks the point of attachment. Cbz = O=C(OCc1ccccc1)*; Thz = O=C(O)[CH]1CSCN1; CH2F = FC*

Experiments:
[1] = target: recombinant, purified human Caspase-8 (Homo sapiens, UniProt Q14790); test: Caspase-8 enzyme inhibition assay (fluorogenic substrate cleavage); format: biochemical; conditions: second order rate constant of enzyme inactivation; substrate Acetyl-Asp-Glu-Val-Asp-amino-4-methylcoumarin
Excerpt: (§1) The assays for caspase inhibition are based on the cleavage of a fluorogenic substrate by recombinant, purified human Caspases -1, -3, or -8. The assays are run in essentially the same way as those reported by Garcia-Calvo et al. (J. Biol. Chem. 273 (1998), 32608–32613), using a substrate specific for each enzyme. The substrate for Caspase-1 is Acetyl-Tyr-Val-Ala-Asp-amino-4-methylcoumarin (SEQ ID NO:1). The substrate for Caspases -3, and -8 is Acetyl-Asp-Glu-Val-Asp-amino-4-methylcoumarin (SEQ ID NO:2).
(§2) The observed rate of enzyme inactivation at a particular inhibitor concentration, kobs, is computed by direct fits of the data to the equation derived by Thornberry et al. (Biochemistry 33 (1994), […]) using a nonlinear least-squares analysis computer program (PRISM 2.0; GraphPad software). To obtain the second order rate constant, kinact, kobs values are plotted against their respective inhibitor concentrations and kinact values are subsequently calculated by computerized linear regression.

cortical neurons = test: Hypoxia-induced apoptosis of cortical neurons assay; format: cell-based, Wistar rat; conditions: Cortical neurone; rat embryo cortical neurons, hypoxia 42 hours, DNA fragmentation ELISA
Description: Apoptosis can be induced by growth factor withdrawal and by hypoxia. This assay measures the extent of DNA fragmentation indicating the effectiveness of caspase inhibitors to prevent apoptosis. Experimental Procedure Cortical neurons were dissociated from Wistar rat embryos (E17) by a modification of the procedure of Rogers et al 1997, Brain Res Bulletin 44:131. Cerebral cortices were isolated aseptically from 15–20 Wistar rat embryos. A cell suspension was prepared by mincing the cerebral cortices and digesting them with papain. Cells were washed with ovomucoid enzyme inhibitor and DNaseI and plated onto Poly D lysine coated plates in high glucose DMEM containing 10% heat-inactivated foetal calf serum, L-glutamine, penicillin and streptomycin. The yield of neurons was 10^7 per embryo and they were 80–90% viable as assessed by Trypan blue exclusion.
Cells were seeded at 1×10^6 cells per cm^2 in 96-well plates and cultured in complete medium (in high glucose DMEM containing 10% heat-inactivated foetal calf serum, L-glutamine, penicillin and streptomycin) at 37° C. in a normal atmosphere for 48 hours prior to the hypoxia experiments. Hypoxia was performed as described (Tamatani et al.1998, Molecular Brain Research, 58:27). The normal cell medium was replaced by hypoxic medium and cells were incubated in an atmosphere of 95% N2/5% CO2 for 42 hours. For compound testing, compounds were dissolved in DMSO at 100 mM then diluted in medium and added to the culture at the beginning of the hypoxic period. Apoptosis was measured using an ELISA assay to detect DNA fragmentation (Roche). Controls included cells cultured in aerobic conditions in serum-containing medium.

[2] = target: T1, recombinant, purified human Caspase-1 (Homo sapiens, UniProt P29466); test: Caspase-1 enzyme inhibition assay (fluorogenic substrate cleavage); format: biochemical; conditions: second order rate constant of enzyme inactivation; substrate Acetyl-Tyr-Val-Ala-Asp-amino-4-methylcoumarin
T1 sequence (P29466 120-297 limits assumed): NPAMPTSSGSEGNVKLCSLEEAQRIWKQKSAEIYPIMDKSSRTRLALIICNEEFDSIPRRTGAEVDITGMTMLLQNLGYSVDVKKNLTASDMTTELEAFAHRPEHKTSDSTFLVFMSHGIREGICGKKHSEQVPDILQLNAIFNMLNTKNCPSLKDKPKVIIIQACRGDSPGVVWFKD
T1 sequence (P29466 317-404 limits assumed): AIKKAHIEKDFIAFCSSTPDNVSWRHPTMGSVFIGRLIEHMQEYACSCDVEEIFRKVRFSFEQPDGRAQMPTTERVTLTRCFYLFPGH
Excerpt: as §1, §2

[3] = test system: IL-1β secretion from PBMC; test: Inhibition of IL-1β secretion from mixed population of PBMC; format: cell-based; conditions: human PBMC, LPS 50 ng/ml, 16–18 h, mature IL-1β in supernatant
Description: Processing of pre-IL-1β by caspase-1 can be measured in cell culture using a variety of cell sources. Human PBMC obtained from healthy donors provides a mixed population of lymphocyte and mononuclear cells that produce a spectrum of interleukins and cytokines in response to many classes of physiological stimulators.
The test compound is dissolved in Dimethyl Sulphoxide (DMSO,Sigma #D-2650) to give a 100 mM stock solution. This is diluted in complete medium consisting of RPMI containing 10% heat inactivated FCS (Gibco BRL #10099-141), 2 mM L-Glutamine (Sigma, #G-7513), 100U penicillin and 100 μg/ml streptomycin (Sigma #P-7539). The final concentration range of test compound is from 100 μM down to 6 nM over eight dilution steps. The highest concentration of test compound is equivalent to 0.1% DMSO in the assay.
Human PBMC are isolated from Buffy Coats obtained from the blood bank using centrifugation on Ficoll-Paque leukocyte separation medium (Amersham, #17-1440-02) and the cellular assay is performed in a sterile 96 well flat-bottomed plate (Nunc). Each well contains 100 μl of the cell suspension, 1×10^5 cells, 50 µl of compound dilutions and 50 μl of LPS (Sigma #L-3012) at 50 ng/ml final concentration. Controls consist of cells +/−LPS stimulation and a serial dilution of DMSO diluted in the same way as compound. The plates are incubated for 16–18 h at 37° C. in 5% CO2 & 95% humidity atmosphere.
After 16–18 h the supernatants are harvested after centrifuging the plates at 100×g at 18° C. for 15 min and assayed for their IL-1β content. Measurement of mature IL-1[…] in the supernatant is performed using the Quantikine kits (R&D Systems) according to manufacturer's instructions. Mature IL-1β levels of about 600–1500 pg/ml are observed for PBMCs in positive control wells.
The inhibitory potency of the compounds can be represented by an IC50 value, which is the concentration of inhibitor at which 50% of the mature IL-1β is detected in the supernatant as compared to the positive controls.

[4] = target: T2, recombinant, purified human Caspase-3 (Homo sapiens, UniProt P42574); test: Caspase-3 enzyme inhibition assay (fluorogenic substrate cleavage); format: biochemical; conditions: second order rate constant of enzyme inactivation; substrate Acetyl-Asp-Glu-Val-Asp-amino-4-methylcoumarin
T2 sequence (P42574 29-175 limits assumed): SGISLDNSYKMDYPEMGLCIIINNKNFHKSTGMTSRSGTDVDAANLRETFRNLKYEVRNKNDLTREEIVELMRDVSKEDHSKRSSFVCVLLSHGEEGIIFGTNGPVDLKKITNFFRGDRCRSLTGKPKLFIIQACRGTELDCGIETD
T2 sequence (P42574 176-277 limits assumed): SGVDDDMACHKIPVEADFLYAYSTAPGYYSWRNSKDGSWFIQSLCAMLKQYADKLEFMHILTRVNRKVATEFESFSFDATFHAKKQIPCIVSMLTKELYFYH
Excerpt: The assays for caspase inhibition are based on the cleavage of a fluorogenic substrate by recombinant, purified human Caspases -1, -3, or -8.
To obtain the second order rate constant, kinact, kobs values are plotted against their respective inhibitor concentrations and kinact values are subsequently calculated by computerized linear regression.

Chain of recombinant, purified human Caspase-8 (Q14790 217-374 limits assumed): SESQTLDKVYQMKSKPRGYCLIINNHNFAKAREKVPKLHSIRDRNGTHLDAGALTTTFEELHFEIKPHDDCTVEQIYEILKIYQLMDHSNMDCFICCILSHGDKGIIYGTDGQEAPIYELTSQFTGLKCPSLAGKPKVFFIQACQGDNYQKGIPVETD
Chain of recombinant, purified human Caspase-8 (Q14790 385-479 limits assumed): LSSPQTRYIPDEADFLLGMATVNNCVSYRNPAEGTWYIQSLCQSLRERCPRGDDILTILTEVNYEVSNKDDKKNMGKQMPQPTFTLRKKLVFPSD

Compound	C-8 Kinact [1]	IC50 (cortical neurons) [µM]	C-1 Kinact [2]	IC50 [3] [µM]	C-3 Kinact [4]
CC(C)[C@H](NC(=O)OCc1ccc(Cl)cc1)C(=O)NC(CC(=O)O)C(=O)CF (stereo partly drawn) [4-ClCbz-Val-Asp-fmk]	175 × 1000 M^−1s^−1	1.98	69 × 1000 M^−1s^−1		
O=C(O)CC(NC(=O)C1CCCN1C(=O)OCc1ccccc1)C(=O)CF (stereo not drawn) [Cbz-Pro-Asp-fmk] (Cbz-Pro-Asp-CH2F; configuration not given here)	15.5 × 1000 M^−1s^−1	2.78	7.5 × 1000 M^−1s^−1	> 10	
O=C(O)CC(NC(=O)C1CSCN1C(=O)OCc1ccccc1)C(=O)CF (stereo not drawn) [Cbz-Thz-Asp-fmk] (Cbz-[Thz]-Asp-CH2F; configuration not given here)	12 × 1000 M^−1s^−1	1.56	227.5 × 1000 M^−1s^−1	2.31	
O=C(O)CC(NC(=O)[C@@H]1CCc2ccccc2N1C(=O)OCc1ccccc1)C(=O)CF (stereo partly drawn) [Example 3, [3S/R,(2S)]-3-(1-Benzyloxycarbonyl-1,2,3,4-tetrahydro-quinolinyl-2-carboxamido)-5-fluoro-4-oxo-pentanoic acid]	122 × 1000 M^−1s^−1		318 × 1000 M^−1s^−1	1.15	239.5 × 1000 M^−1s^−1
O=C(O)CC(NC(=O)[C@@H]1CCCCN1C(=O)OCc1cccc(Cl)c1)C(=O)CF (stereo partly drawn) [Example 5, [3S/R,(2S)]-3-(1-(3-Chlorobenzyloxycarbonyl)-2-piperidinecarboxamido)-5-fluoro-4-oxo-pentanoic acid]				0.5	
O=C(O)CC(NC(=O)[C@@H]1CCCCN1C(=O)OCc1cc(Cl)ccc1Cl)C(=O)CF (stereo partly drawn) [Example 23, [3S/R,(2S)]-5-Fluoro-3-(1-(2,5-dichlorobenzyloxycarbonyl)-2-piperidinecarboxamido)-4-oxo-pentanoic acid]		0.336			
O=C(O)CC(NC(=O)[C@@H]1CCCCN1C(=O)O[C@H](c1cccc(Cl)c1)C(F)(F)F)C(=O)CF (stereo partly drawn) [Example 34]	839 × 1000 M^−1s^−1	0.463	518 × 1000 M^−1s^−1		181 × 1000 M^−1s^−1
